Tests used:
[1] = organism: Mus musculus; assay: Compound was evaluated for its potency in CDF1 mice and the serum cholesterol levels were determined; format: ADME, organism-based
[2] = organism: Mus musculus; assay: Compound was evaluated for its potency in CDF1 mice and the serum metabolite levels were determined; format: ADME, organism-based
[3] = organism: Mus musculus; assay: Compound was evaluated for its potency in CDF1 mice and the serum triglyceride levels were determined; format: ADME, organism-based
[4] = organism: Mus musculus; assay: Evaluated for potency in CDF1 mice and the inhibition of body weight gain was determined; format: functional
[5] = organism: Mus musculus; assay: Evaluated for potency in CDF1 mice and the ability of it to decrease feed consumption was determined; format: functional
[6] = organism: Mus musculus; assay: Feed efficiency was calculated by dividing body weight gain by feed consumption in mouse; format: functional
[7] = organism: Mus musculus; assay: Compound was evaluated for its potency in CDF1 mice and the abdominal fat weight was determined.; format: functional, Abdomen
[8] = organism: Mus musculus; assay: Compound was evaluated for its potency in CDF1 mice and the abdominal fat weight was determined; format: functional, Abdomen

Row | SMILES | Serum cholesterol [1] [mg/dL] | Serum metabolite [2] [mg/dL] | Serum triglyceride [3] [mg/dL] | Body weight gain [4] [g/day] | Feed consumption [5] [g/day] | Feed efficiency [6] | Abdominal fat [7] [g] | Abdominal fat [8] [g]
1 | CC(C)CCC[C@@H](C)[C@H]1CC[C@H]2[C@@H]3C=CC4=CC(=O)C=C[C@]4(C)[C@H]3CC[C@]12C | 206.3 | 0 | 390.4 | 0.27 | 5.41 | 0.05 | – | –
2 | CC(C)CCC[C@@H](C)[C@H]1CC[C@H]2[C@@H]3C[C@@H](O)C4=CC(=O)CC[C@]4(C)[C@H]3CC[C@]12C | 136.7 | 0 | 120 | 0.28 | 5.7 | 0.05 | 0.8 | –
3 | CCCCCCCCC(=O)OC1CC[C@@]2(C)C(=CC[C@H]3[C@@H]4CC[C@H]([C@H](C)CCCC(C)C)[C@@]4(C)CC[C@@H]32)C1 (some centres undefined) | – | – | – | 0.52 | 5.28 | 0.1 | – | –
4 | CC(C)CCC[C@@H](C)[C@H]1CC[C@H]2[C@@H]3CC(=O)C4=CC(=O)CC[C@]4(C)[C@H]3CC[C@]12C | 110 | 0 | 133.6 | -0.36 | 6 | -0.06 | 0.3 | –
5 | CC(C)CCC[C@@H](C)[C@H]1CC[C@H]2[C@@H]3CC=C4C=C(N5CCCC5)CC[C@]4(C)[C@H]3CC[C@]12C | 158.1 | 22 | 277.7 | -0.18 | 6.1 | -0.03 | 0.41 | –
6 | CC[C@H](CC[C@@H](C)[C@H]1CC[C@H]2[C@@H]3CCC4CC(O)CC[C@]4(C)[C@H]3CC[C@]12C)C(C)C (some centres undefined) | – | – | – | 0.49 | 5.43 | 0.09 | – | –
7 | CC(C)CCC[C@@H](C)[C@H]1CC[C@H]2[C@@H]3C[C@H](O)[C@]4(O)CC(=O)CC[C@]4(C)[C@H]3CC[C@]12C | – | – | – | 0.58 | 5.39 | 0.11 | – | –
8 | CC[C@H](/C=C/[C@@H](C)[C@H]1CC[C@H]2[C@@H]3CC=C4CC(=O)CC[C@]4(C)[C@H]3CC[C@]12C)C(C)C | – | – | – | 0.52 | 6.37 | 0.08 | – | –
9 | CC(C)CCC[C@@H](C)[C@H]1CC[C@H]2[C@@H]3CC[C@H]4CC(O)CC[C@]4(C)[C@H]3CC[C@]12C (some centres undefined) | 148.1 | 23 | 212.7 | 0.38 | 5.45 | 0.07 | 0.9 | –
10 | CC(C)CCC[C@@H](C)[C@H]1CC[C@H]2[C@@H]3CC=C4CC(OC(=O)c5ccccc5)CC[C@]4(C)[C@H]3CC[C@]12C (some centres undefined) | – | – | – | 0.46 | 5.57 | 0.08 | – | –
11 | CC(C)CCC[C@@H](C)[C@H]1CC[C@H]2[C@@H]3CC[C@@]45O[C@@H]4C(=O)CC[C@]5(C)[C@H]3CC[C@]12C | 141.6 | 0 | 218 | 0.46 | 6.14 | 0.08 | 1.12 | –
12 | CC(=O)OC1=CC2=CC[C@H]3[C@@H]4CC[C@H]([C@H](C)CCCC(C)C)[C@@]4(C)CC[C@@H]3[C@@]2(C)CC1 | 187.5 | 22 | 119.9 | 0.33 | 5.64 | 0.06 | 1.03 | –
13 | CC(C)CCC[C@@H](C)[C@H]1CC[C@H]2[C@@H]3CCC4=C(CSc5ccccc5)C(=O)CC[C@]4(C)[C@H]3CC[C@]12C | – | – | – | 0.56 | 6.23 | 0.09 | – | –
14 | CC[C@H](CC[C@@H](C)[C@H]1CC[C@H]2[C@@H]3CCC4=CC(=O)CC[C@]4(C)[C@H]3CC[C@]12C)C(C)C | 164.6 | 0 | 188.3 | 0.4 | 4.94 | 0.08 | 1 | –
15 | CC[C@H](/C=C/[C@@H](C)[C@H]1CC[C@H]2[C@@H]3CC=C4CC(O)CC[C@]4(C)[C@H]3CC[C@]12C)C(C)C (some centres undefined) | – | – | – | 0.57 | 6.3 | 0.09 | – | –
16 | CC(C)CCC[C@@H](C)[C@H]1CC[C@H]2[C@@H]3C=CC4=CC(=O)CC[C@]4(C)[C@H]3CC[C@]12C | 112.7 | 22 | 172.6 | 0.32 | 4.71 | 0.07 | 0.9 | –
17 | CC(=O)OC1CC[C@@]2(C)C(=CC[C@H]3[C@@H]4CC[C@H]([C@H](C)CCCC(C)C)[C@@]4(C)CC[C@@H]32)C1 (some centres undefined) | – | – | – | 0.52 | 5.28 | 0.1 | – | –
18 | CC(C)CCC[C@@H](C)[C@H]1CC[C@H]2[C@@H]3CC=C4CCCC[C@]4(C)[C@H]3CC[C@]12C | 165.8 | 0 | 253.6 | 0.56 | 6.95 | 0.08 | – | –
19 | CC(C)CCC[C@@H](C)[C@H]1CC[C@H]2[C@@H]3CCC4C[C@@H](O)CC[C@]4(C)[C@H]3CC[C@]12C (some centres undefined) | – | – | – | 0.52 | 5.83 | 0.09 | – | –
20 | CC(C)CCC[C@@H](C)[C@H]1CC[C@H]2[C@@H]3CCC4CC(O)CC[C@]4(C)[C@H]3CC[C@]12C (some centres undefined) | – | – | – | 0.58 | 6.48 | 0.09 | – | –
21 | CC(C)CCC[C@@H](C)[C@H]1CC[C@H]2[C@@H]3CC[C@@H]4CC(=O)CC[C@]4(C)[C@H]3CC[C@]12C | 161.3 | 22 | 291.2 | 0.5 | 5.39 | 0.09 | 1.25 | –
22 | CC(C)CCC[C@@H](C)[C@H]1CC[C@H]2[C@@H]3C[C@H](Br)[C@]4(Br)CC(=O)CC[C@]4(C)[C@H]3CC[C@]12C | – | – | – | 0.43 | 5.72 | 0.08 | – | –
23 | CC(C)CCC[C@@H](C)[C@H]1CC[C@H]2[C@@H]3CCC4=C(Br)C(=O)CC[C@]4(C)[C@H]3CC[C@]12C | – | – | – | 0.52 | 6.58 | 0.08 | – | –
24 | CC(C)CCC[C@@H](C)[C@H]1CC[C@H]2[C@@H]3CC[C@@H]4CC(O)CC[C@]4(C)[C@H]3CC[C@]12C (some centres undefined) | – | – | – | 0.55 | 6.1 | 0.09 | – | –
25 | CC(C)CCC[C@@H](C)[C@H]1CC[C@H]2[C@@H]3CCC4=CC(=O)C=C[C@]4(C)[C@H]3CC[C@]12C | 165.4 | 0 | 266.9 | 0.15 | 4.94 | 0.03 | 0.61 | –
26 | CC(C)CCC[C@@H](C)[C@H]1CC[C@H]2[C@@H]3C[C@H](Br)C4=CC(=O)CC[C@]4(C)[C@H]3CC[C@]12C | 176.8 | 22 | 257.3 | 0.26 | 4.2 | 0.06 | 0.81 | –
27 | CC(C)CCC[C@@H](C)[C@H]1CC[C@H]2[C@@H]3CCC4=CC(=O)CC[C@]4(C)[C@H]3CC[C@]12C [4-CHOLESTEN 3-ONE] | 115.8 | 22 | 218.3 | 0.35 | 5.43 | 0.06 | – | 0.68
28 | CC(C)CCC[C@@H](C)[C@H]1CC[C@H]2[C@@H]3CC=C4CC(=O)CC[C@]4(C)[C@H]3CC[C@]12C [CHOLEST-5-EN-3-ONE] | 122.1 | 0 | 87.5 | -0.1 | 3.62 | 0.03 | 0.48 | –
29 | CC(C)CCC[C@@H](C)[C@H]1CC[C@H]2[C@@H]3CC[C@H]4CC(=O)CC[C@]4(C)[C@H]3CC[C@]12C [CHOLESTAN-3-ONE] | 134.1 | 23 | 201.7 | 0.28 | 4.6 | 0.06 | 0.92 | –

Source: ChEMBL document CHEMBL1130921, “The cholesterol metabolite cholest-4-en-3-one and its 3-oxo derivatives suppress body weight gain, body fat accumulation and serum lipid concentration in mice” (Bioorg Med Chem Lett, 1998)
